≈ marks a conversion by molar mass, not a printed value. Like-named read-outs stand apart in the source and are kept apart here. One block for each molecule: values may come before it.
Key:
[1] = test system: E. coli; test: MIC by agar dilution, E. coli; assay type: cell-based; conditions: Table 1; E. coli, 4 isolates; value over three Gram-negative pathogens
Text: (§1) A panel of multiple resistance Gram-positive and Gram-negative pathogens listed in Tables 1 and 2 was used to evaluate the antimicrobial activity of marinopyrrole derivatives (Chart 1) with vancomycin as a positive control. Except for those marked with WHO, all pathogens were isolated between 2008 and 2010 in hospitals located in Beijing; Guangzhou; Sichuan, Shandong and Jiangsu Province. Determination of the minimum inhibitory concentration (MIC) was done by the guidelines of the Clinical and Laboratory Standards Institute (Clinical and Laboratory Standards Institute, Performance standards for antimicrobial susceptibility testing, seventeenth informational supplement. 2007, 27, M100-S17). The susceptibility tests of a bacterial strain to a marinopyrrole derivative were performed by an agar dilution method. Briefly, each sterile petri dish contained a final volume of 15 mL comprising 1 mL of a marinopyrrole derivative and 14 mL of Mueller-Hinton broth. The concentrations of a marinopyrrole derivative are 128, 64, 32, 16, 8, 4, 2, 1, 0.5, 0.25, 0.125, 0.06, 0.03, 0.015 and 0.008 μg/mL. The petri dish containing the broth with different concentration of antibiotics was first inoculated with 10^5 CFU/mL (Denley A400, United Kingdom) and the culture was then incubated with shaking at 35-37° C. for 18-20 h. The potency of the compound was determined and expressed as minimum inhibitory concentration (MIC) in μg/mL. The MIC was determined as the lowest concentration of antibiotic that inhibited visible bacterial growth.

[2] = test system: Moderately vancomycin-resistant Enterococci faecium with the VanA gene (WHO-3); test: MIC by agar dilution, VRE (WHO-3); assay type: cell-based
Text: as §1

[3] = test system: K. penumonia; test: MIC by agar dilution, K. penumonia; assay type: cell-based, K. pneumonia; conditions: Table 1; K. penumonia, 4 isolates; value over three Gram-negative pathogens
Text: as §1

[4] = test system: Methicillin-resistant Staphylococcus epidermidis (MRSE); test: MIC by agar dilution, MRSE clinical isolates; assay type: cell-based; conditions: for MIC: MRSE
Text: as §1

[5] = test system: P. aeruginosa; test: MIC by agar dilution, P. aeruginosa; assay type: cell-based; conditions: Table 1; P. aeruginosa, 4 isolates; value over three Gram-negative pathogens
Text: as §1

[6] = test system: Methicillin-susceptible Staphylococcus aureus (MSSA); test: MIC by agar dilution, MSSA clinical isolates; assay type: cell-based; conditions: MSSA
Text: as §1

[7] = test system: Methicillin-resistant Staphylococcus aureus with the mec A gene and PBP2a (WHO-31); test: MIC by agar dilution, MRSA (WHO-31); assay type: cell-based
Text: as §1

[8] = test system: Methicillin-resistant Staphylococcus aureus (MRSA); test: MIC by agar dilution, MRSA clinical isolates; assay type: cell-based; conditions: for MIC: MRSA
Text: as §1

[9] = test system: Oxacillin-resistant Staphylococcus aureus (WHO-25); test: MIC by agar dilution, ORSA (WHO-25); assay type: cell-based
Text: as §1

[10] = test system: Highly vancomycin-resistant Enterococci faecalis (VRE); test: MIC by agar dilution, highly resistant VRE; assay type: cell-based; conditions: Table 1; VRE (highly vancomycin-resistant E. faecalis), 2 isolates
Text: as §1

[11] = Table 1, VRE (WHO-3), 1 isolate
[12] = Table 1, MRSA (WHO-31), 1 isolate
[13] = Table 1, ORSA (WHO-25), 1 isolate
[14] = Enterococcus, Table 2, WHO-3, read-out: MIC
[15] = Staphylococcus epidermidis, Table 2, data from 4 isolates, read-out: MIC
[16] = Staphylococcus aureus, Table 2, data from 8 isolates, read-out: MIC
[17] = Staphylococcus aureus, Table 2, WHO-31, read-out: MIC
[18] = Staphylococcus aureus, Table 2, WHO-25, read-out: MIC

Compound: COc1cccc(C(=O)c2[nH]c(Cl)c(Cl)c2-n2c(C(=O)c3cccc(OC)c3)cc(Cl)c2Cl)c1 [Compound 1e]
MIC [1]: >128 µg/mL | MIC [2, 11]: >128 µg/mL | MIC [3]: >128 µg/mL | MIC ([4]; Table 1, 3 isolates): >128 µg/mL | MIC [5]: >128 µg/mL | MIC ([6]; Table 1, 10 isolates): >128 µg/mL | MIC [7, 12]: >128 µg/mL | MIC ([8]; Table 1, 10 isolates): >128 µg/mL | MIC [9, 13]: >128 µg/mL | MIC [10]: >128 µg/mL

Compound: O=C(c1ccccc1C(F)(F)F)c1[nH]c(Cl)c(Cl)c1-n1c(C(=O)c2ccccc2C(F)(F)F)cc(Cl)c1Cl [Compound 1j]
MIC [1]: >128 µg/mL | MIC [2, 11]: >128 µg/mL | MIC [3]: >128 µg/mL | MIC ([4]; Table 1, 3 isolates): >128 µg/mL | MIC [5]: >128 µg/mL | MIC ([6]; Table 1, 10 isolates): >128 µg/mL | MIC [7, 12]: >128 µg/mL | MIC ([8]; Table 1, 10 isolates): >128 µg/mL | MIC [9, 13]: >128 µg/mL | MIC [10]: >128 µg/mL

Compound: O=C(c1ccccc1O)c1[nH]c(Cl)c(Cl)c1-n1c(C(=O)c2ccccc2O)cc(Cl)c1Cl (racemic) [Compound 1, marinopyrrole A, reference compound]
higher potency than vancomycin (fold) ([2]; against moderately resistant VRE (Table 1)): 128-256 fold

Compound: O=C(c1cc(Cl)c(O)cc1O)c1[nH]c(Cl)c(Cl)c1-n1c(C(=O)c2cc(Cl)c(O)cc2O)cc(Cl)c1Cl [Compound 19, (4,4′,5,5′-Tetrachloro-1′H-1,3′-bipyrrole-2,2′-diyl)bis((5-chloro-2,4-dihydroxyphenyl)methanone)]
MIC [2, 14]: 4 µg/mL (≈ 6.55 µM) | MIC [4, 15]: 4 to 8 µg/mL (≈ 6.55 to 13.1 µM) | fold decreased potency compared with compound 1m ([4]; against MRSE): 2-16 fold | MIC [6, 16]: 32 µg/mL (≈ 52.4 µM) | MIC [7, 17]: 8 µg/mL (≈ 13.1 µM) | MIC [8, 16]: 32 µg/mL (≈ 52.4 µM) | fold decreased potency compared with compound 1m ([8]; against MRSA): 4-16 fold | MIC [9, 18]: 8 µg/mL (≈ 13.1 µM)

Second part, the molecule after the results:

MIC [2, 14]: 32 µg/mL (≈ 46.4 µM) | MIC [4, 15]: 32 to 64 µg/mL (≈ 46.4 to 92.7 µM) | MIC [6, 16]: > 64 µg/mL | MIC [7, 17]: > 64 µg/mL | MIC [8, 16]: > 64 µg/mL | MIC [9, 18]: > 64 µg/mL
Compound: O=C(O)CSc1ccc(C(=O)c2[nH]c(Cl)c(Cl)c2-n2c(C(=O)c3ccc(SCC(=O)O)cc3O)cc(Cl)c2Cl)c(O)c1 [Compound 31]

MIC ([2]; Table 2, WHO-3): 16 µg/mL (≈ 19.6 µM) | MIC ([4]; Table 2, data from 4 isolates): 8 to 64 µg/mL | MIC ([6]; Table 2, data from 8 isolates): >64 µg/mL | MIC ([7]; Table 2, WHO-31): >64 µg/mL | MIC ([8]; Table 2, data from 8 isolates): >64 µg/mL | MIC ([9]; Table 2, WHO-25): >64 µg/mL
Compound: COc1ccc(CSc2ccc(C(=O)c3[nH]c(Cl)c(Cl)c3-n3c(C(=O)c4ccc(SCc5ccc(OC)cc5)cc4O)cc(Cl)c3Cl)c(O)c2)cc1 [Compound 27]

MIC ([2]; Table 2, WHO-3): 16 µg/mL (≈ 21.2 µM) | MIC ([4]; Table 2, data from 4 isolates): 8 to 32 µg/mL | MIC ([6]; Table 2, data from 8 isolates): >64 µg/mL | MIC ([7]; Table 2, WHO-31): >64 µg/mL | MIC ([8]; Table 2, data from 8 isolates): >64 µg/mL | MIC ([9]; Table 2, WHO-25): >64 µg/mL
Compound: O=C(c1ccc(SCc2ccccc2)cc1O)c1[nH]c(Cl)c(Cl)c1-n1c(C(=O)c2ccc(SCc3ccccc3)cc2O)cc(Cl)c1Cl [Compound 26, (4,4′,5,5′-Tetrachloro-1′H-1,3′-bipyrrole-2,2′-diyl)bis(((2-hydroxy-4-benzylthio)phenyl)methanone)]
